For one data set, the system named is Colo-205. It is filed as cell-based, human. The settings on record: 24 h. The method, then: (§1) Hemacolor assay—A comparative study was effected between peptides GnRH—X and NLS-GnRH-E on three adenocarcinoma cell lines: MDA-MB-231 (breast) HCT-116 and Colo-205 (colon), described in Example 5 above. Briefly, cells were plated in 96 well plates and allowed to adhere to the plates. Thereafter, various concentrations of GnRH and NLS-GnRH peptides were incubated with the adhered cells for 24 h. To quantify the extent of damage to the cells by the peptides, the Hemacolor assay was effected as described in Example 5. Viable cells which remained adhered to the 96 plastic plates were fixed and stained. Dye was extracted from the plate by addition of 0.5% SDS in PBS (100 μl) with vigorous mixing. Plates were quantified at 650 nm by spectrophotometer (ELISA reader). Cell viability of ≧95% by Trypan blue exclusion from 400 cells was a prerequisite for each experiment. Note, the color intensity is proportional to the extent of the remaining viability. Data was calculated as EC50, which is defined as the concentration (in μM) of analog that provokes a response half way between the baseline (Bottom=control) and maximum response (Top).

The subject of a further data set is HCT-116. It is filed as cell-based, human. Particulars: 24 h. The method, then:
as §1

A further data set has as its system MDA-MB-231. It is filed as cell-based, human. Particulars: 24 h. The protocol:
as §1

The subject of data set [1] is female athymic nude mice NCr-nu. In words: Total tolerated dosage (TTD), single injection. It is filed as in vivo. Particulars: observed 14 days. The protocol:
The total tolerated dosage of peptide by mice administered with a single injection was tested.
The test compounds were administered to 10 female athymic nude mice NCr-nu (Charles River Laboratories, Wilmington, Mass.) as a single injection at the following dosages and routes:
Peptide X was injected intra-peritonealy (IP) at 400, 200, and 100 mg/kg.
Peptide NLS-E was tested intra-venously (IV) at 400, 200, 100, 50 and 25 mg/kg
Different injection volumes of a stock solution at a concentration of 20 mg/ml were used to administer the desired dosages (injection volumes of 0.05, 0.1, and 0.2 ml/10 g body, respectively) The carrier was water for injection at pH 7. […] Individual body weights were measured twice a week.

Data set [2] has as its system female athymic NCr-nu nude mice. Nature of the data set: Maximal tolerated dosage (MTD), twice a day for 14 consecutive days. It is filed as in vivo. Particulars: for mice that died: five mice per group. The protocol:
The maximum tolerated dosage (MTD) of the test compounds was tested when administered twice a day for 14 consecutive days.
A total of 50 female athymic NCr-nu nude mice (obtained as mentioned in Example 10a) were used as follows: five groups of mice with five mice per group per compound. Peptides dissolved in water at pH 7 (the vehicle) were evaluated at four dosages (The dosages selected were derived from the results of the TTD experiment, Example 10a):
Peptide X was injected IP at 20 mg/kg/injection for 7 days, followed by IP injections at […] 10, 5, 2.5 mg/kg/injection for 7 days followed by 30, 15 and 7.5 mg/kg, for 14 days respectively.
Peptide NLS-E was tested at 10, 5, 2.5, and 1.25 mg/kg/injection followed by injection at 30, 15, 7.5 and 3.75 mg/kg respectively. Injections were given IV except in the groups treated with 10/30 and 5/15 mg/kg/injection, where injections were switched to IP route on day 10 of treatment.
Additionally, one vehicle-treated control group of five mice per compound was included in the experiment. […] The MTD study was terminated on Day 29.
Individual body weights were measured twice a week.

For data set [3], the system named is Colo-205 adenocarcioma cell line. Nature of the data set: Growth inhibitory effect by Hemacolor assay on Colo-205 (Example 7). It is filed as cell-based, human. The text has this:
Peptides were synthesized as described in Example 6 above.
Table 10 below summarizes the concentration of the various peptides required to obtain 50% viability, or to destroy 50% of the tumor cells, as derived from the hemacolor test (FIGS. 3 and 4a-c). Of note, the higher the concentration of peptide required, the poorer the potency of the analog.

The mark [4] stands for this setting: read-out: Concentration [M] × 10^−6 (derived from table 10).
Setting [5] is: read-out: Concentration required to obtain 50% viability.

Where two headings read alike, the source gives them in different places. Non-standard residues stand in square brackets, D forms with d. Residues, ends and D or L forms follow the SMILES beside them. *: point of attachment. Palmitoyl = CCCCCCCCCCCCCCCC(=O)*

This note sets out measurements from patent US20080027003A1, “Peptides Useful for Treating Gnrh Associated Diseases” (CurePeptide Ltd., priority 2004, published 2008).

For `CCCCCCCCCCCCCCCC(=O)N1CCC[C@H]1C(=O)NCC(=O)N[C@H](Cc1ccccc1)C(=O)N1CCC[C@H]1C(=O)N[C@@H](CO)C(=O)N[C@@H](Cc1ccc(O)cc1)C(=O)N[C@H](CCCCN)C(=O)N[C@@H](CC(C)C)C(=O)N[C@@H](CCCNC(=N)N)C(=O)N1CCC[C@H]1C(=O)NCC(N)=O` [SEQ ID NO: 2, Palm-Pro-Gly-D-Phe-Pro-Ser-Tyr-D-Lys-Leu-Arg-Pro-Gly-NH2] (Palmitoyl-PG[dF]PSY[dK]LRPG-NH2), the values for the EC50 in the data set on Colo-205, with HCT-116 and in the data set with MDA-MB-231 were 200 µM, 750 µM and 400 µM, respectively. Moreover, the “lethality after single injection” value was “stayed alive” in data set [1] (IP, 100 mg/kg); “lethal” in data set [1] (IP, 200 mg/kg); “lethal” in data set [1] (IP, 400 mg/kg). In addition, the mice that died result is on record as “one” in data set [2] (10/30 mg/kg) and “Three” in data set [2] (IP, 20/60 mg/kg).

For the compound `CCCCCCCCCCCCCCCC(=O)N[C@H](CCCCNC(=O)[C@@H](NC(=O)[C@H](CCCCN)NC(=O)[C@H](CCCNC(=N)N)NC(=O)[C@H](CCCCN)NC(=O)[C@H](CCCCN)NC(=O)[C@H](CCCCN)NC(=O)[C@@H]1CCCN1)C(C)C)C(=O)N1CCC[C@H]1C(=O)NCC(=O)N[C@H](Cc1ccccc1)C(=O)N1CCC[C@H]1C(=O)N[C@@H](CO)C(=O)N[C@@H](Cc1ccc(O)cc1)C(=O)N[C@H](CCCCN)C(=O)N[C@@H](CC(C)C)C(=O)N[C@@H](CCCNC(=N)N)C(=O)N1CCC[C@H]1C(=O)NCC(N)=O` [SEQ ID NO: 33, Palm-D-Lys(H-Pro-Lys-Lys-Lys-Arg-Lys-Val)-Pro-Gly-D-Phe-Pro-Ser-Tyr-D-Lys-Leu-Arg-Pro-Gly-NH2], the EC50 in the data set on Colo-205 was 68 µM; in the data set with HCT-116, 320 µM; in the data set on MDA-MB-231, 350 µM. Besides, the “lethality after single injection” value was “stayed alive” in data set [1] (IV, 25 mg/kg); “stayed alive” in data set [1] (IV, 50 mg/kg); “lethal” in data set [1] (IV, 100 mg/kg); “lethal” in data set [1] (IV, 200 mg/kg); “lethal” in data set [1] (IV, 400 mg/kg). Moreover, in data set [2] (IV injected, all dosages), the mice that died entry is “None”. Also, in data set [2] (repeated dosing in mice), the comparative toxicity entry was “less toxic than peptide X”.

For “Palm-D-Lys-Pro-Gly-D-Phe-Pro-Ser-Tyr-D-Lys-Leu-Arg-Pro-Gly-NH2 (Palmitoyl-[dK]PG[dF]PSY[dK]LRPG-NH2; SMILES CCCCCCCCCCCCCCCC(=O)N[C@H](CCCCN)C(=O)N1CCC[C@H]1C(=O)NCC(=O)N[C@H](Cc1ccccc1)C(=O)N1CCC[C@H]1C(=O)N[C@@H](CO)C(=O)N[C@@H](Cc1ccc(O)cc1)C(=O)N[C@H](CCCCN)C(=O)N[C@@H](CC(C)C)C(=O)N[C@@H](CCCNC(=N)N)C(=O)N1CCC[C@H]1C(=O)NCC(N)=O) [SEQ ID NO: 9]”, the “Activity with respect to NLS-E (%)” value in data set [3] was found to be 16%. Besides, the EC50 in data set [3] (setting [4]) and in data set [3] (setting [5]) was 3.5e-05 M each time. For the same compound, the “Activity with respect to NLS peptide (%)” value in data set [3] (relative to the corresponding NLS-conjugated peptide) is 16%.

“Palm-D-Lys-Gly-D-Phe-Pro-Ser-Tyr-D-Lys-Leu-Arg-Pro-Gly-NH2 (Palmitoyl-[dK]G[dF]PSY[dK]LRPG-NH2; SMILES CCCCCCCCCCCCCCCC(=O)N[C@H](CCCCN)C(=O)NCC(=O)N[C@H](Cc1ccccc1)C(=O)N1CCC[C@H]1C(=O)N[C@@H](CO)C(=O)N[C@@H](Cc1ccc(O)cc1)C(=O)N[C@H](CCCCN)C(=O)N[C@@H](CC(C)C)C(=O)N[C@@H](CCCNC(=N)N)C(=O)N1CCC[C@H]1C(=O)NCC(N)=O) [SEQ ID NO: 10]”: the “Activity with respect to NLS-E (%)” value in data set [3] is listed as 12.5%. In addition, the EC50 in data set [3] (setting [5]) worked out at 5e-05 M.

Regarding “Palm-Pro-Gly-D-Phe-Ala-Ser-Tyr-D-Lys-Leu-Arg-Pro-Gly-NH2 (Palmitoyl-PG[dF]ASY[dK]LRPG-NH2; SMILES CCCCCCCCCCCCCCCC(=O)N1CCC[C@H]1C(=O)NCC(=O)N[C@H](Cc1ccccc1)C(=O)N[C@@H](C)C(=O)N[C@@H](CO)C(=O)N[C@@H](Cc1ccc(O)cc1)C(=O)N[C@H](CCCCN)C(=O)N[C@@H](CC(C)C)C(=O)N[C@@H](CCCNC(=N)N)C(=O)N1CCC[C@H]1C(=O)NCC(N)=O) [SEQ ID NO: 16]”, in data set [3], the “Activity with respect to NLS-E (%)” value is 16%. For the same compound, the EC50 in data set [3] (setting [5]) is 3.5e-05 M.

As to “Palm-Pro-Gly-D-Phe-Pro-Ser-Tyr-D-Lys(H-Pro-Lys-Lys-Lys-Arg-Lys-Val)-Leu-Arg-Pro-Gly-NH2 [SEQ ID NO: 32]”, in data set [3], the “Activity with respect to NLS-E (%)” value turned out to be 50%. The EC50 in data set [3] (setting [4]) and in data set [3] (setting [5]) was 1e-05 M in each case.
